For data set [1], the system named is HIF-1. The experiment in a line: Assay of IC50, AGS cells (HRE-luciferase transfected). In kind it is cell-based. As to conditions: Homo sapiens. An excerpt:
(§1) Six tandem repeats of HRE (hypoxia Responsive Element 5′-ACGTG-3′), which is present in a human VEGF gene, was inserted into the multi-cloning region of a pGL3-basic vector (Promega) containing a luciferase gene as a reporter gene to produce a recombinant pGL3-HRE-luciferase vector which was then used to assay the compounds prepared in the above Examples for inhibition activity against HIF-mediated transcriptional activity.

The test system of data set [2] is HIF-1. The experiment in a line: Assay of IC50, Hep3B cells (HRE-luciferase transfected). The class given is cell-based. The settings on record: Homo sapiens.
From the text: as §1

Data set [3] concerns HIF-1. The experiment in a line: Assay of IC50, SK-Hep-1 cells (same manner). In kind it is cell-based. The settings on record: Homo sapiens, SK-HEP1; SK-Hep-1 cell line, compounds 0.01 to 100 μM for 16 hrs.
From the text: as §1

The subject of data set [4] is metastatic breast carcinoma cell line MDA-MB-435. The experiment in a line: In vivo anticancer activity in nude mice implanted with MDA-MB-435. As to conditions: for inhibition of the growth of the cancer cells compared to the control: once a day, MDA-MB-435 in nude mice. An excerpt:
Female nude mice 5-6 weeks old (Crj:BALB/c nu/nu, Charles River) were bred in germ-free breeding rooms maintained at constant temperature and humidity. The nude mice were anesthetized before incision of the chest skin. The metastatic breast carcinoma cell line MDA-MB-435, obtained from DR D. R. Welch, Univ. Alabama, was implanted at a count of 10^6 cells/mouse into the mammary gland fat pad, and the incisions were then closed with surgical clips. The nude mice were divided into test groups and a control group, each consisting of 6 mice. […] For the control group, Solution A alone was used at a dose of 100 μl once a day. Thereafter, tumor volumes and body weights were measured once a week. Tumor volumes were calculated according to the following Mathematic Formula 1. Tumor Volume (mm^3)=(Length of Long Axis,mm)×(Length of Short Axis,mm)^2×0.5 <Mathematic Formula 1>

For `COC(=O)c1cccc(NC(=O)COc2ccc(C34CC5CC(CC(C5)C3)C4)cc2)c1` [Example 2, 3-[2-(4-Adaman-1-yl-phenoxy)-acetylamino]-benzoic acid methyl ester], the IC50 in data set [1] came out at 7.4 µM; in data set [2], 9.9 µM.
In the case of `CC(C)(C)c1ccc(OCC(=O)Nc2cccc(C(N)=O)c2)cc1` [Example 30, 3-[2-(4-tert-butyl-phenoxy)-acetyl-amino]-benzamide], the IC50 in data set [1] and in data set [2] was over 30 µM in each case.
Take `Cc1ccc(OCC(=O)Nc2cccc(C(N)=O)c2)cc1` [Example 31, 3-(2-p-tolyloxy-acetyl-amino)-benzamide]: the IC50 in data set [1] and in data set [2] was over 30 µM each time.
On to `NC(=O)c1cccc(NC(=O)COc2ccc([N+](=O)[O-])cc2)c1` [Example 32, 3-[2-(4-nitro-phenoxy)-acetyl-amino)benzamide], for which the IC50 in data set [1] and in data set [2] was over 30 µM in each case.
With `O=C(COc1ccc(F)cc1)Nc1cccc(C(=O)O)c1` [Example 51, 3-[2-(4-fluoro-phenoxy)acetylamino]-benzoic acid], the IC50 in data set [1] and in data set [2] was over 30 µM each time.
Take `O=C(COc1ccc(Cl)cc1)Nc1cccc(C(=O)O)c1` [Example 52, 3-[2-(4-chloro-phenoxy)-acetylamino]-benzoic acid]: the IC50 in data set [1] was 10 µM; in data set [2] it was over 30 µM.
On to `O=C(COc1ccc(Br)cc1)Nc1cccc(C(=O)O)c1` [Example 57, 3-[2-(4-bromo-phenoxy)-acetylamino]-benzoic acid], for which the figures for the IC50 in data set [1] and in data set [2] were 1.6 µM and over 30 µM, respectively.
On to `O=C(COc1ccc(I)cc1)Nc1cccc(C(=O)O)c1` [Example 58, 3-[2-(4-iodo-phenoxy)-acetylamino]-benzoic acid], for which the IC50 in data set [1] was 3.5 µM; in data set [2], 7.2 µM.
For `CC(=O)c1ccc(OCC(=O)Nc2cccc(C(=O)O)c2)cc1` [Example 60, 3-[2-(4-acetyl-phenoxy)-acetylamino]-benzoic acid], in that order: over 30 µM and over 30 µM.
As for `NC(=O)c1ccc(O)c(NC(=O)COc2ccc(C34CC5CC(CC(C5)C3)C4)cc2)c1` [Example 65, 3-[2-(4-adamantan-1-yl-phenoxy)-acetylamino]-4-hydroxy-benzamide], the IC50 is 1.5 µM in data set [1] and over 30 µM in data set [2].
For `CN(C)C(=O)c1ccc(O)c(NC(=O)COc2ccc(C34CC5CC(CC(C5)C3)C4)cc2)c1` [Example 66, 3-[2-(4-adamantan-1-yl-phenoxy)-acetylamino]-4-hydroxy-N,N-dimethyl-benzamide], in that order: over 30 µM and over 30 µM.
In the same order, the values of `O=C(COc1ccc(C23CC4CC(CC(C4)C2)C3)cc1)Nc1cc(C(=O)NCc2ccco2)ccc1O` [Example 67, 3-[2-(4-adamantan-1-yl-phenoxy)-acetylamino]-N-furan-2-ylmethyl-4-hydroxy-benzamide] are 5.9 µM and 12.6 µM.
For `CN(C)CCNC(=O)c1ccc(O)c(NC(=O)COc2ccc(C34CC5CC(CC(C5)C3)C4)cc2)c1` [Example 68, 3-[2-(4-adamantan-1-yl-phenoxy)-acetylamino]-N-(2-dimethylamino-ethyl)-4-hydroxy-benzamide], in that order: 3 µM and 51.7 µM.
On to `O=C(COc1ccc(C23CC4CC(CC(C4)C2)C3)cc1)Nc1cc(C(=O)NCCCN2CCOCC2)ccc1O` [Example 69], for which the IC50 in data set [1] and in data set [2] was over 30 µM throughout.
Turning to `O=C(COc1ccc(C23CC4CC(CC(C4)C2)C3)cc1)Nc1cccc(C(=O)Nc2ccc(Cl)cc2)c1` [Example 70, 3-[2-(4-adamantan-1-ylphenoxy)-acetylamino]-N-(4-chloro-phenyl)-benzamide], the IC50 was 9.5 µM in data set [1] and over 30 µM in data set [2].
In the same order, the values of `O=C(COc1ccc(C23CC4CC(CC(C4)C2)C3)cc1)Nc1cccc(C(=O)Nc2ccc3ccccc3c2)c1` [Example 72, 3-[2-(4-adamantan-1-yl-phenoxy)-acetylamino]-N-naphtalene-2-yl-benzamide] are over 30 µM and over 30 µM.
On to `O=C(COc1ccc(C23CC4CC(CC(C4)C2)C3)cc1)Nc1cccc(C(=O)NCc2ccco2)c1` [Example 73], for which the IC50 came to 2 µM in data set [1] and 14.1 µM in data set [2].
For `O=C(COc1ccc(C23CC4CC(CC(C4)C2)C3)cc1)Nc1cccc(C(=O)NCCc2ccncc2)c1` [Example 74], in that order: 3.1 µM and 8.2 µM.
As for `O=C(COc1ccc(Cl)cc1Cl)Nc1cccc(C(=O)NCc2ccco2)c1` [Example 77, 3-[2-(2,4-dichloro-phenoxy)-acetylamino]-N-furan-2-ylmethyl-benzamide], the figures for the half-maximal inhibitory concentration (IC50) in data set [1] and in data set [2] were 35 µM and over 30 µM, respectively.
As for `O=C(COc1ccc(Cl)cc1Cl)Nc1cc(C(=O)NCc2ccco2)ccc1O` [Example 78, 3-[2-(2,4-dichloro-phenoxy)-acetylamino]-N-fan-2-ylmethyl-4-hydroxy-benzamide], the IC50 in data set [1] is over 30 µM; in data set [2], 23.2 µM.
Turning to `COC(=O)c1ccnc(NC(=O)COc2ccc(C34CC5CC(CC(C5)C3)C4)cc2)c1` [Example 86, 2-[2-(4-adamantan-1-yl-phenoxy)acetylamino]-isonicotinic acid methyl ester], the IC50 in data set [1] stood at 2 µM; in data set [3] it was 1.03 µM; in data set [2], 1.2 µM.
On to `COC(=O)c1cncc(NC(=O)COc2ccc(C34CC5CC(CC(C5)C3)C4)cc2)c1` [Example 87, 5-[2-(4-adamantan-1-yl-phenoxy)acetylamino]-nicotinic acid methyl ester], for which the IC50 in data set [1] is 5 µM; in data set [3], over 30 µM; in data set [2], 5.9 µM.
In the case of `O=C(COc1ccc(Cl)cc1Cl)Nc1cc(C(=O)O)ccn1` [Example 95, 2-[2-(2,4-dichloro-phenoxy)-acetylamino]-isonicotinic acid], the “inhibition of the growth of the cancer cells compared to the control” value in data set [4] (20 mg/kg) is 4.3%. In data set [4] (50 mg/kg), the “deaths in six mice of each group” value was “No dead were observed” and the “inhibition of the growth of the cancer cells compared to the control” value was determined as 36.5%.
For `O=C(COc1ccc(C23CC4CC(CC(C4)C2)C3)cc1)Nc1cc(C(=O)O)ccn1` [Example 98, 2-[2-(4-adamantan-1-yl-phenoxy)acetylamino]-isonicotinic acid], the IC50 in data set [3] was 2 µM; in data set [2] it was 1.03 µM.
The compound `O=C(COc1ccc(C23CC4CC(CC(C4)C2)C3)cc1)Nc1cncc(C(=O)NCCc2ccncc2)c1` [Example 102, 5-[2-(4-adamantan-1-yl-phenoxy)acetylamino]-N-(2-pyridine-4-yl-ethyl)nicotinamide] showed an IC50 in data set [3] of over 30 µM.
For the compound `O=C(COc1ccc(C23CC4CC(CC(C4)C2)C3)cc1)Nc1cncc(C(=O)NCCCn2ccnc2)c1` [Example 103, 5-[2-(4-adamantan-1-yl-phenoxy)-acetylamino]-N-(3-imidazole-1-yl-propyl)nicotinamide], the IC50 in data set [3] was found to be 1.9 µM.
In data set [3], `O=C(COc1ccc(C23CC4CC(CC(C4)C2)C3)cc1)Nc1cc(C(=O)Nc2ccc(Cl)cc2)ccn1` [Example 104, 2-[2-(4-adamantan-1-yl-phenoxy)-acetylamino]-N-(4-chloro-phenyl)-isonicotinamide] returned an IC50 of 2.5 µM.
For the compound `O=C(COc1ccc(C23CC4CC(CC(C4)C2)C3)cc1)Nc1cc(C(=O)NCc2ccco2)ccn1` [Example 105, 2-[2-(4-adamantan-1-yl-phenoxy)-acetylamino]-N-furan-2-ylmethyl-isonicotinamide], the IC50 in data set [3] is over 30 µM.
Take `O=C(COc1ccc(C23CC4CC(CC(C4)C2)C3)cc1)Nc1cc(C(=O)NCCc2ccncc2)ccn1` [Example 106, 2-[2-(4-adamantan-1-yl-phenoxy)-acetylamino]-N-(2-pyridine-4-yl-ethyl)-isonicotinamide]: 3.4 µM corresponded to half-maximal inhibition in data set [3] (IC50).
`O=C(COc1ccc(C23CC4CC(CC(C4)C2)C3)cc1)Nc1cc(C(=O)NCCCn2ccnc2)ccn1` [Example 107, 2-[2-(4-adamantan-1-yl-phenoxy)-acetylamino]-N-(3-imidazole-1-yl-propyl)-isonicotinamide] registered an IC50 in data set [3] of under 1 µM.
On the same count and under the same terms, to `NC(=O)c1cncc(NC(=O)COc2ccc(C34CC5CC(CC(C5)C3)C4)cc2)c1` [Example 112, 5-[2-(4-adamantan-1-yl-phenoxy)acetylamino]-nicotinamide] belongs 11.9 µM.

For the origin of these results see patent publication US8394799B2, “Compounds that inhibit HIF-1 activity, the method for preparation thereof and the pharmaceutical composition containing them as an effective component” (Korea Research Institute of Bioscience and Biotechnology, priority 2006, dated 2013).
